Measured values reported in patent US20240217968A1, “PHARMACEUTICAL COMPOUND” (DUKE STREET BIO LIMITED, priority 2021, published 2024).

What follows are compounds tested against T1, recombinant human Flag-tagged PARP7 (amino acids 456-657) (Homo sapiens, UniProt Q7Z3E1) (assay: PARP7 biochemical DELFIA assay (auto-MARylation)). Details: DELFIA readout, IC50 class.
T1 construct: recombinant human Flag-tagged PARP7 (amino acids 456-657)
T1 sequence (Q7Z3E1 456-657): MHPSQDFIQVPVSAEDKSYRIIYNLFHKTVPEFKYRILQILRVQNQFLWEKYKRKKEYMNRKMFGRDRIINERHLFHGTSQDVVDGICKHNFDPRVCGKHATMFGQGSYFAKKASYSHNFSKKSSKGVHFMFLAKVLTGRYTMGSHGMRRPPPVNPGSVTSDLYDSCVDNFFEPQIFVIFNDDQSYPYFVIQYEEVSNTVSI
In short: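 Flag-PARP7 (456-657), 12.5-37.5 nM stock, captured on anti-FLAG wells, preincubated 30 min with compound, then auto-MARylated with biotin-NAD+ (15 μM stock) in HEPES pH 7.5/NaCl/DTT/BSA/Tween for 2-3 h at room temperature. NAD+ quench; Eu-streptavidin DELFIA read, Ex337/Em620 nm.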

IC50 [nM]	Compound
100 to 1000	CC(COCCC(=O)N1CCN(c2ncccc2C(F)(F)F)CC1)n1nc(C(F)(F)F)c2c(=O)[nH]ncc21 (stereo not shown) [Compound 354]
100 to 1000	N#Cc1ccc(N2CCCN(C(=O)c3cccc(Cc4cccc5c(=O)[nH]ncc45)c3)CC2)nc1 [Compound 28]
≤ 100	CC(COCCC(=O)N1CCN(c2ccc(Cl)cn2)CC1)n1cc(C(F)(F)F)c2c(=O)[nH]ncc21 (stereo not shown) [Compound 374]
≤ 100	CC(COCCC(=O)N1CCN(c2ncccc2C#N)CC1)n1nc(C(F)(F)F)c2c(=O)[nH]ncc21 (single isomer, unassigned) [Compound 406]
≤ 100	CC(C)c1nn(CCOCCC(=O)N2CCN(c3ncc(C(F)(F)F)cn3)CC2)c2cn[nH]c(=O)c12 [Compound 154]
≤ 100	O=C(CCOCCn1nc(C(F)(F)F)c2c(=O)[nH]ncc21)N1CCN(c2ncc(Cl)cn2)CC1 [Compound 285]
≤ 100	N#Cc1cn(CCOCCC(=O)N2CCN(c3ncc(C(F)(F)F)cn3)CC2)c2cn[nH]c(=O)c12 [Compound 340]
≤ 100	CCC(COCCC(=O)N1CCN(c2ncc(C(F)(F)F)cn2)CC1)n1nc(C(F)(F)F)c2c(=O)[nH]ncc21 (stereo not shown) [Compound 297]
≤ 100	[2H]C([2H])(Cn1nc(C(F)(F)F)c2c(=O)[nH]ncc21)OCCC(=O)N1CCN(c2ncc(C(F)(F)F)cn2)CC1 [Compound 409]
1000 to 10000	O=C1NCCc2c1ccn2CCOCCC(=O)N1CCN(c2ncc(C(F)(F)F)cn2)CC1 [Compound 56]
≤ 100	CC1CN(C(=O)CCOCCc2cccc3c(=O)[nH]ncc23)CCN1c1ccc(C#N)cn1 (stereo not shown) [Compound 91]
≤ 100	CC(COCCC(=O)N1CCN(c2ncc(C(C)(F)F)cn2)CC1)n1nc(C(F)(F)F)c2c(=O)[nH]ncc21 (single isomer, unassigned) [Compound 486]

The next lines start with the compound.

Compound	IC50 [nM]
COCc1cc2c(=O)[nH]ncc2n1CCOCCC(=O)N1CCN(c2ncc(C(F)(F)F)cn2)CC1 [Compound 135]	100 to 1000
O=C(CCOCCc1cccc2c(=O)[nH]ncc12)N1CCN(c2ncc(C(F)(F)F)s2)CC1 [Compound 106]	≤ 100
O=C(CCOCCc1cccc2c(=O)[nH]ncc12)N1CCN(c2ccccn2)CC1 [Compound 103]	100 to 1000
O=C1NC(=O)c2c(CCOCCC(=O)N3CCN(c4ncc(C(F)(F)F)cn4)CC3)cccc21 [Compound 121]	100 to 1000
CC(COCCC(=O)N1CCN(c2ncc(C(F)(F)F)cn2)CC1)n1cc(C(F)F)c2c(=O)[nH]ncc21 (single isomer, unassigned) [Compound 395, 3-(difluoromethyl)-1-(1-(3-oxo-3-(4-(5-(trifluoromethyl)pyrimidin-2-yl)piperazin-1-yl)propoxy)propan-2-yl)-1,5-dihydro-4H-pyrrolo[2,3-d]pyridazin-4-one]	≤ 100
CC(COCCC(=O)N1CCN(c2ncc(C(F)(F)F)cn2)CC1)c1cc(Cl)cc2c(=O)[nH]ncc12 (stereo not shown) [Compound 162]	100 to 1000
CC(COCCn1nc(C(F)(F)F)c2c(=O)[nH]ncc21)C(=O)N1CCN(c2ncc(C(F)(F)F)cn2)CC1 (stereo not shown) [Compound 201]	≤ 100
[2H]C([2H])(Cn1nc(C(F)(F)F)c2c(=O)[nH]ncc21)OCCC(=O)N1CCN(c2ncc(C#N)cn2)CC1 [Compound 408]	≤ 100
N#Cc1ccc2oc(N3CCN(C(=O)CCOCCc4cccc5c(=O)[nH]ncc45)CC3)nc2c1 [Compound 208]	≤ 100
Cc1cn(C(C)COCCC(=O)N2CCN(c3ncc(C(F)(F)F)cn3)CC2)c2cn[nH]c(=O)c12 (single isomer, unassigned) [Compound 151]	≤ 100
O=C(CCOCCn1nc(C(F)(F)F)c2c(=O)[nH]ncc21)N1CCN(c2cc(C(F)(F)F)on2)CC1 [Compound 364]	≤ 100
CC(C)(COCCC(=O)N1CCN(c2ncc(C(F)(F)F)cn2)CC1)c1cccc2c(=O)[nH]ncc12 [Compound 425]	100 to 1000
CC(COCCC(=O)N1CCN(c2ccc(C#N)cn2)CC1)n1cc(C(F)(F)F)c2c(=O)[nH]ncc21 (single isomer, unassigned) [Compound 432]	≤ 100
